# Test system: mouse
# Assay: Oral activity in vivo: audiogenic mouse test and/or MES test
# Conditions: oral administration
# Method: The oral bioavailability was tested using the audiogenic mouse test (Audiogenic seizures, R. L. Collins; Chapter 14, pages: 347-372. In: Experimental Models of Epilepsy; By: Pupura, Penry, Tower, Woodbury, Walter, Raven Press, New York, 1972. Standard Book Number: 0-911216-26-X) and/or the MES test.
smiles,measurement,value
"CCc1cc2[nH]c(=O)n(NS(C)(=O)=O)c(=O)c2cc1-c1ccnn1C(C)C [Compound C-6, N-[7-Ethyl-6-(2-isopropyl-2H-pyrazol-3-yl)-2,4-dioxo-1,4-dihydro-2H-quinazolin-3-yl]-methanesulfonamide]",In vivo orally active,Yes
"CC(C)c1cc2[nH]c(=O)n(NS(C)(=O)=O)c(=O)c2cc1-c1ccnn1C(C)C [Compound C-8, N-[7-Isopropyl-6-(2-isopropyl-2H-pyrazol-3-yl)-2,4-dioxo-1,4-dihydro-2H-quinazolin-3-yl]-methanesulfonamide]",In vivo orally active,yes
"CC(C)OC(C)c1cc2c(=O)n(NS(C)(=O)=O)c(=O)[nH]c2cc1C(F)(F)F (stereo not drawn) [Compound A-4, N-[6-(1-Isopropoxy-ethyl)-2,4-dioxo-7-trifluoromethyl-1,4-dihydro-2H-quinazolin-3-yl]-methanesulfonamide]",In vivo orally active,Yes
"CC(C)n1nccc1-c1cc2c(=O)n(NS(C)(=O)=O)c(=O)[nH]c2cc1C(F)F [Compound C-10, N-[7-Difluoromethyl-6-(2-isopropyl-2H-pyrazol-3-yl)-2,4-dioxo-1,4-dihydro-2H-quinazolin-3-yl]-methanesulfonamide]",In vivo orally active,Yes
"COC(C)c1cc2c(=O)n(NS(C)(=O)=O)c(=O)[nH]c2cc1C(F)(F)F (stereo not drawn) [Compound A-2, N-[6-(1-Methoxy-ethyl)-2,4-dioxo-7-trifluoromethyl-1,4-dihydro-2H-quinazolin-3-yl]-methanesulfonamide]",In vivo orally active,Yes
"CC(O)c1cc2c(=O)n(NS(C)(=O)=O)c(=O)[nH]c2cc1C(F)(F)F (stereo not drawn) [Compound A-1, N-[6-(1-Hydroxy-ethyl)-2,4-dioxo-7-trifluoromethyl-1,4-dihydro-2H-quinazolin-3-yl]-methanesulfonamide]",In vivo orally active,Yes
"COCCn1nccc1-c1cc2c(=O)n(NS(C)(=O)=O)c(=O)[nH]c2cc1C(F)(F)F [Compound C-4, N-{6-[2-(2-Methoxy-ethyl)-2H-pyrazol-3-yl]-2,4-dioxo-7-trifluoromethyl-1,4-dihydro-2H-quinazolin-3-yl}-methanesulfonamide]",In vivo orally active,Yes
"CC(C)c1cc2[nH]c(=O)n(NS(C)(=O)=O)c(=O)c2cc1-c1ccnn1C [Compound C-7, N-[7-Isopropyl-6-(2-methyl-2H-pyrazol-3-yl)-2,4-dioxo-1,4-dihydro-2H-quinazolin-3-yl]-methanesulfonamide]",In vivo orally active,Yes
"Cn1nccc1-c1cc2c(=O)n(NS(C)(=O)=O)c(=O)[nH]c2cc1C(F)(F)F [Compound C-18, N-[6-(2-Methyl-2H-pyrazol-3-yl)-2,4-dioxo-7-trifluoromethyl-1,4-dihydro-2H-quinazolin-3-yl]-methanesulfonamide]",In vivo orally active,Yes
"CS(=O)(=O)Nn1c(=O)[nH]c2cc(C(F)(F)F)c(C3CCCO3)cc2c1=O (stereo not drawn) [Compound B-2, N-[2,4-Dioxo-6-(tetrahydro-furan-2-yl)-7-trifluoromethyl-1,4-dihydro-2H-quinazolin-3-yl]-methanesulfonamide]",In vivo orally active,Yes
"Cn1nncc1-c1cc2c(=O)n(NS(C)(=O)=O)c(=O)[nH]c2cc1C(F)(F)F [Comparative, N-(6-(1-methyl-1H-1,2,3-triazol-5-yl)-2,4-dioxo-7-trifluoromethyl-1,4-dihydro-2H-quinazolin-3-yl]-methanesulfonamide, reference compound]",In vivo orally active,No
"CCOC(C)c1cc2c(=O)n(NS(C)(=O)=O)c(=O)[nH]c2cc1C(F)(F)F (stereo not drawn) [Compound A-5, N-[6-(1-Ethoxy-ethyl)-2,4-dioxo-7-trifluoromethyl-1,4-dihydro-2H-quinazolin-3-yl]-methanesulfonamide]",In vivo orally active,Yes
"Cn1nccc1-c1cc2c(=O)n(NS(C)(=O)=O)c(=O)[nH]c2cc1C(C)(F)F [Compound C-15, N-[7-(1,1-difluoro-ethyl)-6-(2-methyl-2H-pyrazol-3-yl)-2,4-dioxo-1,4-dihydro-2H-quinazolin-3-yl]-methanesulfonamide]",In vivo orally active,Yes
"CC(C)n1nccc1-c1cc2c(=O)n(NS(C)(=O)=O)c(=O)[nH]c2cc1C(C)(F)F [Compound C-16, N-[7-(1,1-difluoro-ethyl)-6-(2-isopropyl-2H-pyrazol-3-yl)-2,4-dioxo-1,4-dihydro-2H-quinazolin-3-yl]-methanesulfonamide]",In vivo orally active,Yes
"CC(C)n1nccc1-c1cc2c(=O)n(NS(C)(=O)=O)c(=O)[nH]c2cc1CF [Compound C-3, N-[7-Fluoromethyl-6-(2-isopropyl-2H-pyrazol-3-yl)-2,4-dioxo-1,4-dihydro-2H-quinazolin-3-yl]-methanesulfonamide]",In vivo orally active,Yes
"CCc1cc2[nH]c(=O)n(NS(C)(=O)=O)c(=O)c2cc1-c1ccnn1C [Compound C-11, N-[7-Ethyl-6-(2-methyl-2H-pyrazol-3-yl)-2,4-dioxo-1,4-dihydro-2H-quinazolin-3-yl]-methanesulfonamide]",In vivo orally active,Yes
"CCCOC(CC)c1cc2c(=O)n(NS(C)(=O)=O)c(=O)[nH]c2cc1C(F)(F)F (stereo not drawn) [Compound A-6, N-[2,4-Dioxo-6-(1-propoxy-propyl)-7-trifluoromethyl-1,4-dihydro-2H-quinazolin-3-yl]-methanesulfonamide]",In vivo orally active,Yes
"CCc1cc2[nH]c(=O)n(NS(C)(=O)=O)c(=O)c2cc1-c1ccnn1CC [Compound C-12, N-[7-Ethyl-6-(2-ethyl-2H-pyrazol-3-yl)-2,4-dioxo-1,4-dihydro-2H-quinazolin-3-yl]-methanesulfonamide]",In vivo orally active,Yes
"COCCC(O)c1cc2c(=O)n(NS(C)(=O)=O)c(=O)[nH]c2cc1C(F)(F)F (stereo not drawn) [Compound A-18, N-[6-(1-Hydroxy-3-methoxy-propyl)-2,4-dioxo-7-trifluoromethyl-1,4-dihydro-2H-quinazolin-3-yl]-methanesulfonamide]",In vivo orally active,Yes
"CCCC(O)c1cc2c(=O)n(NS(C)(=O)=O)c(=O)[nH]c2cc1C(F)(F)F (stereo not drawn) [Compound A-15, N-[6-(1-Hydroxy-butyl)-2,4-dioxo-7-trifluoromethyl-1,4-dihydro-2H-quinazolin-3-yl]-methanesulfonamide]",In vivo orally active,Yes
"CC(OC1CCCC1)c1cc2c(=O)n(NS(C)(=O)=O)c(=O)[nH]c2cc1C(F)(F)F (stereo not drawn) [Compound A-14, N-[6-(1-Cyclopentyloxy-ethyl)-2,4-dioxo-7-trifluoromethyl-1,4-dihydro-2H-quinazolin-3-yl]-methanesulfonamide]",In vivo orally active,yes
"CS(=O)(=O)Nn1c(=O)[nH]c2cc(C(F)(F)F)c(-c3ccnn3O)cc2c1=O [Compound C-5, N-[6-(2-Hydroxy-2H-pyrazol-3-yl)-2,4-dioxo-7-trifluoromethyl-1,4-dihydro-2H-quinazolin-3-yl]-methanesulfonamide]",In vivo orally active,Yes
"CC(F)c1cc2[nH]c(=O)n(NS(C)(=O)=O)c(=O)c2cc1-c1ccnn1C(C)C (stereo not drawn) [Compound C-17, N-[7-(1-fluoro-ethyl)-6-(2-isopropyl-2H-pyrazol-3-yl)-2,4-dioxo-1,4-dihydro-2H-quinazolin-3-yl]-methanesulfonamide]",In vivo orally active,Yes
"CC(C)n1nccc1-c1cc2c(=O)n(NS(C)(=O)=O)c(=O)[nH]c2cc1C(F)(F)F [Compound C-2, N-[6-(2-Isopropyl-2H-pyrazol-3-yl)-2,4-dioxo-7-trifluoromethyl-1,4-dihydro-2H-quinazolin-3-yl]-methanesulfonamide]",In vivo orally active,Yes
"CCC(OC(C)C)c1cc2c(=O)n(NS(C)(=O)=O)c(=O)[nH]c2cc1C(F)(F)F (stereo not drawn) [Compound A-7, N-[6-(1-isopropoxy-propyl)-2,4-dioxo-7-trifluoromethyl-1,4-dihydro-2H-quinazolin-3-yl]-methanesulfonamide]",In vivo orally active,Yes
"CCOC(CC)c1cc2c(=O)n(NS(C)(=O)=O)c(=O)[nH]c2cc1C(F)(F)F (stereo not drawn) [Compound A-13, N-[6-(1-Ethoxy-propyl)-2,4-dioxo-7-trifluoromethyl-1,4-dihydro-2H-quinazolin-3-yl]-methanesulfonamide]",In vivo orally active,Yes
"CS(=O)(=O)Nn1c(=O)[nH]c2cc(C(F)(F)F)c(C3CCOC3)cc2c1=O (stereo not drawn) [Compound B-3, N-[2,4-Dioxo-6-(tetrahydro-furan-3-yl)-7-trifluoromethyl-1,4-dihydro-2H-quinazolin-3-yl]-methanesulfonamide]",In vivo orally active,Yes
"Cn1nccc1-c1cc2c(=O)n(NS(C)(=O)=O)c(=O)[nH]c2cc1C(F)F [Compound C-9, N-[7-Difluoromethyl-6-(2-methyl-2H-pyrazol-3-yl)-2,4-dioxo-1,4-dihydro-2H-quinazolin-3-yl]-methanesulfonamide]",In vivo orally active,Yes
"CCC(O)c1cc2c(=O)n(NS(C)(=O)=O)c(=O)[nH]c2cc1C(F)(F)F (stereo not drawn) [Compound A-3, N-[6-(1-Hydroxy-propyl)-2,4-dioxo-7-trifluoromethyl-1,4-dihydro-2H-quinazolin-3-yl]-methanesulfonamide]",In vivo orally active,Yes
"COCCn1nccc1-c1cc2c(=O)n(NS(C)(=O)=O)c(=O)[nH]c2cc1C(C)C [Compound C-1, N-{7-Isopropyl-6-[2-(2-methoxy-ethyl)-2H-pyrazol-3-yl]-2,4-dioxo-1,4-dihydro-2H-quinazolin-3-yl}-methanesulfonamide]",In vivo orally active,yes

# Reference: patent publication US20140018376A1, “Use of 1H-Quinazoline-2,4-Diones” (priority 2009, published 2014)
